Experimental findings from ChEMBL document CHEMBL1125025, “11 beta-methoxy-, 11 beta-ethyl- and 17 alpha-ethynyl-substituted 16 alpha-fluoroestradiols: receptor-based imaging agents with enhanced uptake efficiency and selectivity” (J Med Chem, 1990) are described below.

In assay [1] the target is T1, Sex hormone-binding globulin (Homo sapiens) (UniProt P04278).
T1 sequence (whole entry): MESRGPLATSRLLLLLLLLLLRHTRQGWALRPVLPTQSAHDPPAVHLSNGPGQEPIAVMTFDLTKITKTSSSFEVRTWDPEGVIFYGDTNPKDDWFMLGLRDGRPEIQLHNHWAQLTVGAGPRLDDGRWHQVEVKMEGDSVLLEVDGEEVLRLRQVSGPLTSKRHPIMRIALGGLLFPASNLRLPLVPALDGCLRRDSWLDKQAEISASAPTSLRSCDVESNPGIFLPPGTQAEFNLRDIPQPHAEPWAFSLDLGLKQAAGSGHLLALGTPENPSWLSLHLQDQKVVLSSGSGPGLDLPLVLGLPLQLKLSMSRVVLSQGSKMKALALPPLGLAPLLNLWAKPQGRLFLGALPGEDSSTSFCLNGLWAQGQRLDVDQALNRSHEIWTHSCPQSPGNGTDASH
As to the kind of experiment: Binding affinity against Sex steroid binding protein(SBP) of human serum. On the set-up: reference not given here.

Assay [2] deals with T2, Alpha-fetoprotein (Rattus norvegicus) (UniProt P02773).
T2 sequence (whole entry): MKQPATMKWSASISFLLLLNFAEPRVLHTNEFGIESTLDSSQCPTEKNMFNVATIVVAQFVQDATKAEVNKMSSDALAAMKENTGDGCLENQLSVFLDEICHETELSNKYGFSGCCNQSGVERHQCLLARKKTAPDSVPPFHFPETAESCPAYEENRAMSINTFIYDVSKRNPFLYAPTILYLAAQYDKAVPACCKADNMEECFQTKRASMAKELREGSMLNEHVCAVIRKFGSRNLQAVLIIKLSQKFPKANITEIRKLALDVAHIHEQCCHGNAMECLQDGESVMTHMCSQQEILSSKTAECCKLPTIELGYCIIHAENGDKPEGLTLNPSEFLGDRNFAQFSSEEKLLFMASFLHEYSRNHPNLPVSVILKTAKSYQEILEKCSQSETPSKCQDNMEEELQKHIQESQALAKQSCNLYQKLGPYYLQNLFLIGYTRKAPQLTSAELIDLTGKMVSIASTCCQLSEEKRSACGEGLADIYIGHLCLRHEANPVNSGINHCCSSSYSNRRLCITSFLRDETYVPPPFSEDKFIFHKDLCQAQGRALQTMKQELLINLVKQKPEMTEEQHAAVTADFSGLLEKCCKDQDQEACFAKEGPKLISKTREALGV
As to the kind of experiment: Binding affinity against Alphafetoprotein (AFP), in rodents. On the set-up: reference not given here.

Molecules are shown by their SMILES.

As for `C#C[C@]1(O)[C@H](F)C[C@H]2[C@@H]3CCc4cc(O)ccc4[C@H]3CC[C@@]21C`, the relative binding affinity (RBA) in assay [1] worked out at 0.43; in assay [2] it was 0.94.
For `CC[C@H]1C[C@]2(C)[C@@H](O)CC[C@H]2[C@@H]2CCc3cc(O)ccc3[C@@H]12`, the relative binding affinity (RBA) in assay [1] was 40.8; in assay [2], 1.21.
In the same order, the values of `CO[C@H]1C[C@]2(C)[C@@H](O)CC[C@H]2[C@@H]2CCc3cc(O)ccc3[C@H]21` are 1.72 and 0.26.
The corresponding values for `C[C@]12CC[C@@H]3c4ccc(O)cc4CC[C@H]3[C@@H]1CC[C@@H]2O` are 100 and 100.
`C#C[C@]1(O)CC[C@H]2[C@@H]3CCc4cc(O)ccc4[C@H]3CC[C@@]21C`: the relative binding affinity (RBA) in assay [1] came out at 1.81; in assay [2] it was 3.51.
For the compound `CC[C@H]1C[C@]2(C)[C@@H](O)[C@H](F)C[C@H]2[C@@H]2CCc3cc(O)ccc3[C@@H]12`, the relative binding affinity (RBA) in assay [1] is 2.24; in assay [2], 1.47.
The corresponding values for `CO[C@H]1C[C@]2(C)[C@@H](O)[C@H](F)C[C@H]2[C@@H]2CCc3cc(O)ccc3[C@H]21` are 0.53 and 0.51.
Regarding `C[C@]12CC[C@@H]3c4ccc(O)cc4CC[C@H]3[C@@H]1C[C@@H](F)[C@@H]2O`, the relative binding affinity (RBA) in assay [1] came out at 9.5; in assay [2], 101.
